Results as given in patent US20020172990A1, “Cyclin dependent kinase 5 phosphorylation of disabled 1 protein” (priority 2002, published 2002).

Tested on: Dab1 phosphorylation in embryonic neurons
Test: Reelin stimulation of embryonic neurons, Dab1 immunoprecipitation and Western blot
Assay type: cell-based, mouse
Method: Stimulation of embryonic neurons with purified Reelin has been described previously (Keshvara et al., J Biol Chem 276:16008-16014, 2001). Briefly, neurons obtained by trituration of embryonic brains were treated either with purified recombinant Reelin or with a control supernatant for 15 minutes at 37° C. After incubation neurons were either snap frozen or lysed immediately. Reelin-treated neuronal pellets were lysed in cell lysis buffer (25 mM Tris-HCl, 1% Nonidet P-40, 150 mM NaCl, 5 mM EDTA, 1 mM sodium orthovanadate, 20 mM sodium fluoride, and 20 μg/ml each of aprotinin and leupeptin). Whole brains were also homogenized in this lysis buffer. Cell lysates as well as brain homogenates were clarified by centrifugation at 10,000× g at 4° C. for 20 min.
Cell or brain lysates were incubated with anti-Cdk5 or anti-Dab1 antibodies at 4° C. for 2 hr. Immune complexes were collected with protein G-agarose beads (Pierce) and washed three times with cell lysis buffer. Immunoprecipitates were boiled in SDS sample buffer, separated by SDS-PAGE, and blotted to nitrocellulose membranes. Nitrocellulose membranes were blocked with 5% non-fat dry milk in TBST (50 mM Tris, pH 7.4, 150 mM NaCl, 1% Tween 20) for 1 hr at room temperature. The following antibodies were used for various immunoblots: anti-PSer491 (1:1000), anti-Cdk5 (1:2000), anti-PY198 (1:100), 4G10 (1:2000) (Upstate Biotechnology, Lake Placid, N.Y.), and anti-Dab1 (CT38, 1:5000). All dilutions were made in blocking solution, and incubations were carried out at room temperature for one hour. The membranes were washed in TBST and incubated with horseradish peroxidase-conjugated secondary antibody (1:10,000) for 1 hr. Detection was carried out using Super Signal West Dura Extended Duration Substrate (Pierce).
Since the accumulation of hypophosphorylated Dab1 in Cdk5^−/− neurons implies that Reelin signaling is defective, we sought to determine whether the defect in Reelin signaling is intrinsic to Cdk5-deficient neurons or whether it arises as an indirect consequence of the ectopic location of these neurons. […]

Reelin: Large secreted glycoprotein; purified recombinant Reelin used to stimulate embryonic neurons
Tyrosine phosphorylation of Dab1 (neurons from E16.5 Cdk5-/- embryos, Reelin-enriched DMEM vs DMEM alone, 4G10 anti-phosphotyrosine blot): sharp increase in tyrosine phosphorylation of Dab1 | Tyrosine phosphorylation of Dab1 (neurons from E16.5 reeler brains, exogenous Reelin 15 minutes at 37° C.): sharp increase in tyrosine phosphorylation of Dab1 | Serine 491 phosphorylation of Dab1 (neurons from E16.5 reeler brains, exogenous Reelin 15 minutes at 37° C., anti-PSer491 blot): did not cause any noticeable change
